Experimental data taken from a compilation of properties of binary mixtures (doi:10.1016/j.jct.2016.06.015).

Test: xn = mol fraction of the nth substance listed
Details: 100 kPa

CC#N + CC[n+]1ccn(C)c1.F[B-](F)(F)F
x1 = 1
Details | viscosity [mPa·s]
293.15 K | 0.386
298.15 K | 0.37
313.15 K | 0.327
323.15 K | 0.302
333.15 K | 0.281
343.15 K | 0.262

CC[n+]1ccn(C)c1.F[B-](F)(F)F + C1COCCO1
viscosity [mPa·s]
Details | 293.15 K | 298.15 K | 303.15 K | 313.15 K | 323.15 K | 333.15 K | 343.15 K | 353.15 K
x2 = 0 | – | 41.5 | – | 24.8 | – | 14.5 | 11.7 | 9.58
x2 = 0.1664 | 35.8 | 29.8 | – | 18.5 | 14.3 | 11.1 | 8.96 | 7.38
x2 = 0.2149 | 32.1 | – | – | – | 13 | 10.3 | 8.38 | 6.91
x2 = 0.3162 | 24.9 | 21 | 18.1 | 13.6 | 10.6 | 8.52 | 6.97 | 5.81
x2 = 0.3591 | 22.2 | 18.8 | 16.2 | 12.3 | 9.69 | – | 6.41 | 5.37
x2 = 0.5077 | 13.8 | 12 | 10.5 | 8.21 | – | – | 4.53 | 3.86
x2 = 0.5453 | 12.2 | 10.6 | – | 7.33 | – | 4.9 | 4.12 | –
x2 = 0.6708 | 7.1 | 6.42 | 5.51 | 4.48 | 3.86 | 3.11 | 2.65 | 2.3

CC[n+]1ccn(C)c1.F[B-](F)(F)F + OCCO
viscosity [mPa·s]
Details | x2 = 0 | x2 = 0.099 | x2 = 0.2174 | x2 = 0.283 | x2 = 0.4435 | x2 = 0.5237 | x2 = 0.5876 | x2 = 0.6954 | x2 = 0.7916 | x2 = 0.8751
293.15 K | 50.5 | 36.8 | 26.8 | 23.4 | 18 | 16.5 | 15.8 | – | 15 | 15.8
298.15 K | 41.5 | 30.7 | 22.6 | – | – | 13.8 | 13.1 | – | 12.3 | 12.9
303.15 K | – | 25.9 | 19.3 | 16.9 | 12.9 | 11.8 | 11.1 | 10.3 | 10.3 | 10.8
313.15 K | 24.8 | 19.1 | 14.3 | 12.7 | – | 8.77 | 8.22 | 7.56 | 7.43 | 7.71
323.15 K | 18.6 | 14.6 | 11.2 | 9.9 | – | 6.81 | – | 5.77 | 5.6 | 5.74
333.15 K | 14.5 | 11.5 | 8.98 | 7.96 | – | – | 5.05 | 4.55 | 4.37 | –
343.15 K | 11.7 | 9.32 | 7.34 | 6.53 | – | 4.47 | – | 3.69 | 3.51 | 3.5
353.15 K | – | 7.69 | 6.12 | 5.47 | 4.21 | 3.75 | – | – | – | 2.85

CS(C)=O + CC[n+]1ccn(C)c1.F[B-](F)(F)F
x1 = 1
Details | viscosity [mPa·s]
293.15 K | 2.21
298.15 K | 2.01
303.15 K | 1.84
313.15 K | 1.56
323.15 K | 1.34
333.15 K | 1.17
343.15 K | 1.03
353.15 K | 0.917

OCCO + CC[n+]1ccn(C)c1.F[B-](F)(F)F
x1 = 1
Details | viscosity [mPa·s]
303.15 K | 14.3
313.15 K | 10
333.15 K | 5.33
353.15 K | 3.24

C1COCCO1 + CC[n+]1ccn(C)c1.F[B-](F)(F)F
x1 = 1
Details | viscosity [mPa·s]
293.15 K | 1.29
298.15 K | 1.18
303.15 K | 1.09
313.15 K | 0.934
333.15 K | 0.718
353.15 K | 0.577

CC[n+]1ccn(C)c1.F[B-](F)(F)F + CS(C)=O
viscosity [mPa·s]
Details | x2 = 0 | x2 = 0.0872 | x2 = 0.2021 | x2 = 0.2931 | x2 = 0.4098 | x2 = 0.4781 | x2 = 0.5718 | x2 = 0.6689 | x2 = 0.7866 | x2 = 0.8959
293.15 K | 50.5 | 43.1 | 35.1 | 29.5 | 22.8 | – | 14.5 | 10.3 | 6.32 | 3.84
298.15 K | 41.5 | 35.5 | 29.1 | 24.6 | – | 16.1 | 12.3 | 8.84 | 5.55 | 3.43
303.15 K | 34.5 | 29.7 | 24.5 | 20.8 | 16.3 | 13.8 | 10.6 | 7.69 | – | 3.09
313.15 K | – | 21.6 | 18 | – | 12.1 | 10.4 | 8.08 | 5.98 | 3.92 | 2.52
323.15 K | 18.6 | 16.3 | 13.7 | 11.8 | 9.43 | 8.09 | 6.37 | 4.78 | 3.21 | 2.13
333.15 K | 14.5 | 12.8 | 10.8 | 9.36 | 7.53 | 6.5 | 5.15 | 3.91 | 2.68 | 1.83
343.15 K | – | 10.3 | 8.73 | – | 6.16 | 5.33 | 4.24 | 3.24 | 2.28 | –
353.15 K | 9.58 | 8.4 | 7.18 | 6.29 | 5.15 | – | 3.59 | 2.77 | 1.97 | 1.42

CC[n+]1ccn(C)c1.F[B-](F)(F)F + CC#N
viscosity [mPa·s]
Details | x2 = 0 | x2 = 0.0797 | x2 = 0.1787 | x2 = 0.2803 | x2 = 0.3682 | x2 = 0.4903 | x2 = 0.5753 | x2 = 0.7116 | x2 = 0.8301
293.15 K | 50.5 | 37.4 | – | 18.1 | 12.3 | 7.49 | 4.83 | 2.48 | 1.21
298.15 K | 41.5 | 31.1 | 21.4 | 15.6 | 10.7 | 6.64 | 4.38 | 2.29 | –
303.15 K | 34.5 | 26.2 | 18.3 | 13.5 | 9.45 | 5.94 | 4 | 2.11 | 1.08
313.15 K | 24.8 | 19.4 | 14 | – | – | 4.85 | 3.36 | 1.82 | 0.961
323.15 K | – | 14.9 | 11 | – | – | 4.05 | 2.87 | – | 0.866
333.15 K | 14.5 | 11.8 | 8.88 | – | 5.07 | 3.44 | 2.48 | – | 0.785
343.15 K | 11.7 | 9.6 | 7.29 | 5.68 | – | 2.97 | 2.17 | – | –
